Earlier results, collected in patent US20030203004A1, “Compositions comprising short and long chain fatty acids and methods of their use for the management of body weight” (priority 2002, published 2003).

Experiments:
[1] = rats; jejunally infused neat, 0.2 mL/hr for seven hours
[2] = humans; sodium propionate included in bread; attributed to delayed gastric emptying rate
[3] = rats

Row | SMILES | total daily caloric intake [1] | satiety [2] | effect on gastric emptying [3]
1 | CCCCC/C=C\C/C=C\CCCCCCCC(=O)O [linoleic acid] | significantly reduce | – | –
2 | CCCCCCCC/C=C\CCCCCCCC(=O)O [oleic acid] | significantly reduce | – | –
3 | CCC(=O)[O-].[Na+] [sodium propionate] | – | induction of satiety | no effect
